Measurements: ChEMBL document CHEMBL5113513, “Selective Inhibitors of Medium-Size S1' Pocket Matrix Metalloproteinases: A Stepping Stone of Future Drug Discovery” (J Med Chem, 2022)
In brackets after ≈: the same amount, converted by molar mass.

How the values were obtained:
[1] = Inhibition of brain damage in C57BL/6J mouse traumatic brain injury model at 25 mg/kg, ip for 7 days by cresyl violet-staining based histopathological analysis; type: functional; settings: 168 h, time 7 day
[2] = Half life in rat at 3 mg/kg, iv; type: ADME, organism-based; settings: in vivo
[3] = Half life in cynomolgus monkey at 3 mg/kg, iv; type: ADME, organism-based, Macaca fascicularis; settings: in vivo
[4] = Metabolic stability in rat assessed as clearance at 3 mg/kg, iv; type: ADME, organism-based; settings: in vivo
[5] = Plasma concentration in dog at 3 mg/kg, iv measured upto 3 hrs; type: ADME, organism-based, Canis lupus familiaris
[6] = Metabolic stability in dog assessed as clearance at 3 mg/kg, iv; type: ADME, organism-based, Canis lupus familiaris; settings: in vivo
[7] = Metabolic stability in cynomolgus monkey assessed as clearance at 3 mg/kg, iv; type: ADME, organism-based, Macaca fascicularis; settings: in vivo
[8] = Oral bioavailability in cynomolgus monkey at 3 mg/kg; type: ADME, organism-based, Macaca fascicularis; settings: in vivo
[9] = Oral bioavailability in rat at 3 mg/kg; type: ADME, organism-based; settings: in vivo
[10] = Plasma concentration in cynomolgus monkey at 3 mg/kg, iv measured upto 3 hrs; type: ADME, organism-based, Macaca fascicularis
[11] = Plasma concentration in rat at 3 mg/kg, iv measured upto 3 hrs; type: ADME, organism-based
[12] = Oral bioavailability in dog at 3 mg/kg; type: ADME, organism-based, Canis lupus familiaris; settings: in vivo
B16-F10 = experiment: Antitumor activity in mouse B16-F10 xenografted C57BL mouse lung metastasis model assessed as increase in life span measured per hour at 100 mg/kg, ip bid; type: functional
Stromelysin-2 [13] = biological target: T1, Stromelysin-2 (Homo sapiens, UniProt P09238); experiment: Inhibition of MMP-10 (unknown origin)
T1 sequence (P09238 whole entry): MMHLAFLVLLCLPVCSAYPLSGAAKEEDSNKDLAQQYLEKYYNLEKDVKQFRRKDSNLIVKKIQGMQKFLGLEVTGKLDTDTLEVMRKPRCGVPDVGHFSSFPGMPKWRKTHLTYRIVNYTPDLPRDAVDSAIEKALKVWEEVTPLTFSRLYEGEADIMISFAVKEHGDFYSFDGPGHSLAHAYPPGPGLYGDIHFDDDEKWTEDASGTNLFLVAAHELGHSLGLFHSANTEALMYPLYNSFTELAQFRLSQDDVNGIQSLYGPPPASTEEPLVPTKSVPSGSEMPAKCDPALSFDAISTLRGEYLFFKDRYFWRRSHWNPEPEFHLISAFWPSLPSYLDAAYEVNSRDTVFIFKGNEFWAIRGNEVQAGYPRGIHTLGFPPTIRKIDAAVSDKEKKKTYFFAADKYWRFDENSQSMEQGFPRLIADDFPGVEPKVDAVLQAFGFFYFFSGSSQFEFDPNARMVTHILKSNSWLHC

Interstitial collagenase [14] = biological target: T2, Interstitial collagenase (Homo sapiens, UniProt P03956); experiment: Inhibition of MMP-1 (unknown origin)
T2 sequence (P03956 whole entry): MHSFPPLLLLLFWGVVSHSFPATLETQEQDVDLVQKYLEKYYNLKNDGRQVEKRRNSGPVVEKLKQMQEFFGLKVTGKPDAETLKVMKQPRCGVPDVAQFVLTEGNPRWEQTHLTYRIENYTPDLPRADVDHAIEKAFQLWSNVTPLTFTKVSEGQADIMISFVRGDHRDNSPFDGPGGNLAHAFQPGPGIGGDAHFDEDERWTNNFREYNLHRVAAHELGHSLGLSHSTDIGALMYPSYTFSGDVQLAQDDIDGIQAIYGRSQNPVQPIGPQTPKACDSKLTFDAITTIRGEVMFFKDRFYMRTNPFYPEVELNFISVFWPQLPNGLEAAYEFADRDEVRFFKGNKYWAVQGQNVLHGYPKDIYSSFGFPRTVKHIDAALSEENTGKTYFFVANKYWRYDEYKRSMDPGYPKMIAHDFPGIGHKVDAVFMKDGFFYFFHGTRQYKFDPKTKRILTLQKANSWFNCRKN

[15] = Aqueous solubility of compound by UV spectroscopy; type: physicochemical
[16] = biological target: T3, Matrix metalloproteinase-9 (Homo sapiens, UniProt P14780); experiment: Inhibition of MMP-9 (unknown origin) catalytic activity using Ac-PLG-[2-mercapto-4-methylpentanoyl]-LG-OC2H5 as substrate and measured upto 30 mins by microplate reader analysis
T3 sequence (P14780 whole entry): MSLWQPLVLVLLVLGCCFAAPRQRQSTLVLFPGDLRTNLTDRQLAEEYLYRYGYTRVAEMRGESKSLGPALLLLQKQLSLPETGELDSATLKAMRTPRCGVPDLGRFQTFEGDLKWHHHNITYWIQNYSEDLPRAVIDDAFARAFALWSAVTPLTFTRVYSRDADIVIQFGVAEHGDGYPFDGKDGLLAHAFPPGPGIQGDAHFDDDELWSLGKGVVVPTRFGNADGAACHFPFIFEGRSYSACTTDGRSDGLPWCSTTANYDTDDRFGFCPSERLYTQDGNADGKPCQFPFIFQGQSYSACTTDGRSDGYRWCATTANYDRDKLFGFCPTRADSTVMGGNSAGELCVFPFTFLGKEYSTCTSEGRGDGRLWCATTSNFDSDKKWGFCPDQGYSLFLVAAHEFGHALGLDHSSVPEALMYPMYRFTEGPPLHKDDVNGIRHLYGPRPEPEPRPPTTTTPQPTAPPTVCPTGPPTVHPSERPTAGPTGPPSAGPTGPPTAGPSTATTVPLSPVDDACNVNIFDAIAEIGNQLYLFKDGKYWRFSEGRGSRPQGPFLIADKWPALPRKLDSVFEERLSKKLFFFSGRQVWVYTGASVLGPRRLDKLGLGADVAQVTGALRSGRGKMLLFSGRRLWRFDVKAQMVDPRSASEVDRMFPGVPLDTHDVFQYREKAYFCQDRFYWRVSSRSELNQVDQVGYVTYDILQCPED

[17] = biological target: T4, 72 kDa type IV collagenase (Homo sapiens, UniProt P08253); experiment: Inhibition of MMP-2 (unknown origin) catalytic activity using Ac-PLG-[2-mercapto-4-methylpentanoyl]-LG-OC2H5 as substrate and measured upto 30 mins by microplate reader analysis
T4 sequence (P08253 whole entry): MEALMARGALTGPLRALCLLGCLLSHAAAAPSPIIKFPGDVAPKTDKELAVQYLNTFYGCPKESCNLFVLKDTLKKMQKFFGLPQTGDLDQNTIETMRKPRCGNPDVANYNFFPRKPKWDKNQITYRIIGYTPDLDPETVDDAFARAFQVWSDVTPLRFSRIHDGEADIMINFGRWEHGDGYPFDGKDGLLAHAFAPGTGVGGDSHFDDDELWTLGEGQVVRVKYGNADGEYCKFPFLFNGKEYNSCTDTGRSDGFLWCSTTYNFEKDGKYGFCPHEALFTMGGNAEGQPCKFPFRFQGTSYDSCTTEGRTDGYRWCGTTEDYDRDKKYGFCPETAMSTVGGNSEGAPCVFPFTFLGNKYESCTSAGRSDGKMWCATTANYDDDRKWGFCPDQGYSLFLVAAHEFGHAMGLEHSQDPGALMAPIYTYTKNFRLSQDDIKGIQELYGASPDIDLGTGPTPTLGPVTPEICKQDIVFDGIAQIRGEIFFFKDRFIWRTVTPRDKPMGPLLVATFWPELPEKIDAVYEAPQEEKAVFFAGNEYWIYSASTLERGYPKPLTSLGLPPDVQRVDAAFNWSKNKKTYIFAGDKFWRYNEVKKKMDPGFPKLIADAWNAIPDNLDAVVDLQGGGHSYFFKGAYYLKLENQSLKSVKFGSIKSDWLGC

Collagenase 3 [18] = biological target: T5, Collagenase 3 (Homo sapiens, UniProt P45452)
Description: Inhibition of MMP-13 (unknown origin)

Matrilysin [19] = biological target: T6, Matrilysin (Homo sapiens, UniProt P09237); experiment: Inhibition of MMP-7 (unknown origin)
T6 sequence (P09237 whole entry): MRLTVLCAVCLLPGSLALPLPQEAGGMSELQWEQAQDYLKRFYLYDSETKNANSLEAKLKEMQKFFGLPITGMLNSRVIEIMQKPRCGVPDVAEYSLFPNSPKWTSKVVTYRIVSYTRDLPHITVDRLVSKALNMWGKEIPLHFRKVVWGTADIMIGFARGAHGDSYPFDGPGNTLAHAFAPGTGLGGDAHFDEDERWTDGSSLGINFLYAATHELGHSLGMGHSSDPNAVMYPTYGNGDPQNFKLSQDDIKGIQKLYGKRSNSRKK

[20] = biological target: T7, Matrix metalloproteinase-14 (Homo sapiens, UniProt P50281); experiment: Inhibition of MMP-14 (unknown origin)
HT-1080 = experiment: Inhibition of cell invasion in human HT-1080 for 22 hrs by CyQuantGR dye based fluorometric analysis; type: functional
Stromelysin-1 [21] = biological target: T8, Stromelysin-1 (Homo sapiens, UniProt P08254); experiment: Inhibition of MMP-3 (unknown origin)
T8 sequence (P08254 whole entry): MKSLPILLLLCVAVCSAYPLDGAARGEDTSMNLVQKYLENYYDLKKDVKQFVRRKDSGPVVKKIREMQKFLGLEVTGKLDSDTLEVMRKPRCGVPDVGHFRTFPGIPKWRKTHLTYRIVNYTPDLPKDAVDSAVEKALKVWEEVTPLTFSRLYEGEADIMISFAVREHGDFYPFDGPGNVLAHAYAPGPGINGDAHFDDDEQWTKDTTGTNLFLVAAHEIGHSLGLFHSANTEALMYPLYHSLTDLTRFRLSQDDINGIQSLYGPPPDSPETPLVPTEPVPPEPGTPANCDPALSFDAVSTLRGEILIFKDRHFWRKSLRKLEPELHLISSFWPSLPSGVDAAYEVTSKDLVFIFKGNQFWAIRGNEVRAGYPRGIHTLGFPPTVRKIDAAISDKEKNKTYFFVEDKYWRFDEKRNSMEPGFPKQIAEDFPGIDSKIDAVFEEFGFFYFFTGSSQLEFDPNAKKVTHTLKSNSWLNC

[22] = biological target: T9, Macrophage metalloelastase (Homo sapiens, UniProt P39900); experiment: Inhibition of MMP-12 (unknown origin)
T9 sequence (P39900 whole entry): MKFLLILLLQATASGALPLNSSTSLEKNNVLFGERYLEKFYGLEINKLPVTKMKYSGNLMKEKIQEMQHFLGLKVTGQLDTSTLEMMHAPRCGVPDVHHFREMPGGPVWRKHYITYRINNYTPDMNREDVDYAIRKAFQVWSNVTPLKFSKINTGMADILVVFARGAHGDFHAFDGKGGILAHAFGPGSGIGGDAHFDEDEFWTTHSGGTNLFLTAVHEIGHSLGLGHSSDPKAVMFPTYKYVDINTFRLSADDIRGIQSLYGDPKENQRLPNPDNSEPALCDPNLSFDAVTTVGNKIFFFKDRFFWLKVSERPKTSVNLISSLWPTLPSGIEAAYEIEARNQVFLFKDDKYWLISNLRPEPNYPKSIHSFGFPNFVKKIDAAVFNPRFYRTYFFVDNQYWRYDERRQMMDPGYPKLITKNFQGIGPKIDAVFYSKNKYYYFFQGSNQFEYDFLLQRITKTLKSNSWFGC

Neutrophil collagenase [23] = biological target: T10, Neutrophil collagenase (Homo sapiens, UniProt P22894); experiment: Inhibition of MMP-8 (unknown origin)
T10 sequence (P22894 whole entry): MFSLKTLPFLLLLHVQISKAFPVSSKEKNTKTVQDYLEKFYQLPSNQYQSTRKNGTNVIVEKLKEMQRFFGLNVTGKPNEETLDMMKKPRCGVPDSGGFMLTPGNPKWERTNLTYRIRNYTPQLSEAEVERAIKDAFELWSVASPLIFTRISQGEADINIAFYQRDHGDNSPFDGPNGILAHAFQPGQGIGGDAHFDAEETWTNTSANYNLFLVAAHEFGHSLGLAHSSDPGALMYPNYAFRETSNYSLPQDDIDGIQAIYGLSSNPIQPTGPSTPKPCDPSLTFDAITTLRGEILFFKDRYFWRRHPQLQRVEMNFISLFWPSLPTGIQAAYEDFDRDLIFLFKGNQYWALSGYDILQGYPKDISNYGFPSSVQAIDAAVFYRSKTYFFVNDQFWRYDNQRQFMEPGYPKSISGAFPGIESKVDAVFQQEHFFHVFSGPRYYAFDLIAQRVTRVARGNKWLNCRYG

Stromelysin-1 [24] = biological target: T8, Stromelysin-1; experiment: Inhibition of human MMP-3 expressed in Escherichia coli BL21(DE3) using Mca-Pro-Leu-Gly-Leu-Dpa-Ala-Arg-NH2 as substrate preincubated for 30 mins followed by susbstrate addition by photon-counter spectrophotometer analysis
Interstitial collagenase [25] = biological target: T2, Interstitial collagenase; experiment: Inhibition of human MMP-1 expressed in Escherichia coli BL21(DE3) using Mca-Pro-Leu-Gly-Leu-Dpa-Ala-Arg-NH2 as substrate preincubated for 30 mins followed by susbstrate addition by photon-counter spectrophotometer analysis
[26] = biological target: T4, 72 kDa type IV collagenase; experiment: Inhibition of human MMP-2 expressed in Escherichia coli BL21(DE3) using Mca-Pro-Leu-Gly-Leu-Dpa-Ala-Arg-NH2 as substrate preincubated for 30 mins followed by susbstrate addition by photon-counter spectrophotometer analysis
[27] = biological target: T3, Matrix metalloproteinase-9; experiment: Inhibition of human MMP-9 expressed in Escherichia coli BL21(DE3) using Mca-Pro-Leu-Gly-Leu-Dpa-Ala-Arg-NH2 as substrate preincubated for 30 mins followed by susbstrate addition by photon-counter spectrophotometer analysis
[28] = biological target: T7, Matrix metalloproteinase-14; experiment: Inhibition of human MMP-14 expressed in Escherichia coli BL21(DE3) using Mca-Pro-Leu-Gly-Leu-Dpa-Ala-Arg-NH2 as substrate preincubated for 30 mins followed by susbstrate addition by photon-counter spectrophotometer analysis
Neutrophil collagenase [29] = biological target: T10, Neutrophil collagenase; experiment: Inhibition of human MMP-8 expressed in Escherichia coli BL21(DE3) using Mca-Pro-Leu-Gly-Leu-Dpa-Ala-Arg-NH2 as substrate preincubated for 30 mins followed by susbstrate addition by photon-counter spectrophotometer analysis
Matrilysin [30] = biological target: T6, Matrilysin; experiment: Inhibition of human MMP-7 expressed in Escherichia coli BL21(DE3) using Mca-Pro-Leu-Gly-Leu-Dpa-Ala-Arg-NH2 as substrate preincubated for 30 mins followed by susbstrate addition by photon-counter spectrophotometer analysis
Collagenase 3 [31] = biological target: T5, Collagenase 3; experiment: Inhibition of human MMP-13 expressed in Escherichia coli BL21(DE3) using Mca-Pro-Leu-Gly-Leu-Dpa-Ala-Arg-NH2 as substrate preincubated for 30 mins followed by susbstrate addition by photon-counter spectrophotometer analysis
Stromelysin-2 [32] = biological target: T1, Stromelysin-2; experiment: Inhibition of human MMP-10 expressed in Escherichia coli BL21(DE3) using Mca-Pro-Leu-Gly-Leu-Dpa-Ala-Arg-NH2 as substrate preincubated for 30 mins followed by susbstrate addition by photon-counter spectrophotometer analysis
[33] = biological target: T9, Macrophage metalloelastase; experiment: Inhibition of human MMP-12 expressed in Escherichia coli BL21(DE3) using Mca-Pro-Leu-Gly-Leu-Dpa-Ala-Arg-NH2 as substrate preincubated for 30 mins followed by susbstrate addition by photon-counter spectrophotometer analysis
[34] = biological target: T4, 72 kDa type IV collagenase; experiment: Inhibition of recombinant human MMP-2 using peptide substrate by ELISA
[35] = Clearance in Sprague-Dawley rats at 33 mg/kg, sc; type: ADME, organism-based; settings: rat, in vivo
[36] = AUC in Sprague-Dawley rats at 33 mg/kg, po; type: ADME, organism-based; parameters: dose 33 mg/kg, route po; settings: rat, in vivo
Collagenase 3 [37] = biological target: T5, Collagenase 3; experiment: Inhibition of recombinant human MMP-13 using peptide substrate by ELISA
[38] = biological target: T9, Macrophage metalloelastase; experiment: Inhibition of recombinant human MMP-12 using peptide substrate by ELISA
[39] = AUC in Sprague-Dawley rats at 33 mg/kg, sc; type: ADME, organism-based; parameters: dose 33 mg/kg, route sc; settings: rat, in vivo
[40] = biological target: T3, Matrix metalloproteinase-9; experiment: Inhibition of recombinant human MMP-9 using peptide substrate by ELISA
[41] = Inhibition of recombinant human TACE using peptide substrate by ELISA
[42] = Half life in Sprague-Dawley rat at 33 mg/kg, po; type: ADME, organism-based; settings: in vivo
[43] = Half life in Sprague-Dawley rats at 33 mg/kg, sc; type: ADME, organism-based; settings: rat, in vivo
Neutrophil collagenase [44] = biological target: T10, Neutrophil collagenase; experiment: Inhibition of recombinant human MMP-8 for 3 hrs using colorimetric substrate by ELISA
[45] = biological target: T4, 72 kDa type IV collagenase; experiment: Inhibition of recombinant human MMP-2 for 3 hrs using colorimetric substrate by ELISA
Interstitial collagenase [46] = biological target: T2, Interstitial collagenase; experiment: Inhibition of recombinant human MMP-1 for 3 hrs using colorimetric substrate by ELISA

`O=S(=O)(CC1CS1)c1ccc(Oc2ccccc2)cc1` (stereo not drawn) gave an inhibition in vivo at 25 mg/kg [1] of 14%.

`CC1(C)NC(=O)N(C[C@@H](COc2ccc(-c3ccc(OC(F)(F)F)cc3)cc2)N(O)C=O)C1=O` gave a half-life [2] of 8 h, a half-life [3] of 21 h and a clearance [4] of 2 mL/min/kg. It also gave a concentration at 3 h [5] of 1500 ng/mL, a clearance [6] of 1.83 mL/min/kg and a clearance [7] of 1.13 mL/min/kg. It also gave a bioavailability [8] of 84%, a bioavailability [9] of 84% and a concentration at 3 h [10] of 1500 ng/mL. The concentration at 3 h [11] was 1500 ng/mL, the bioavailability [12] was 84% and the Activity (B16-F10) was 46%.

In the case of `CN(C)c1ccc(-c2cn(-c3ccc(S(=O)(=O)C4(C(=O)NO)CCOCC4)cc3)nn2)cc1`, the IC50 (Stromelysin-2 [13]) is reported as 44.5 nM, the IC50 (Interstitial collagenase [14]) is reported as over 1000 nM and the solubility [15] is reported as 996 µg/mL (≈ 2110 µM). It also gave an IC50 [16] of 43.9 nM, an IC50 [17] of 1.7 nM and an IC50 (Collagenase 3 [18]) of 3.2 nM. The IC50 (Matrilysin [19]) was 825 nM, the IC50 [20] was 286 nM and the “inhibition (INH)” value (HT-1080) was 37%. It also gave an IC50 (Stromelysin-1 [21]) of 50.5 nM, an IC50 [22] of 4.8 nM and an IC50 (Neutrophil collagenase [23]) of 202 nM.

`NC(=O)[C@@H](CCC(=O)O)NC(=O)[C@@H](CCC(=O)O)NC(=O)[C@@H](Cc1cc(-c2ccc(-c3cccc(Cl)c3)cc2)no1)CP(=O)(O)c1ccc(Br)cc1` gave a Ki (Stromelysin-1 [24]) of 40 nM, a Ki (Interstitial collagenase [25]) of 67000 nM and a Ki [26] of 192 nM. The Ki [27] was 1260 nM, the Ki [28] was 140 nM and the Ki (Neutrophil collagenase [29]) was 271 nM. The Ki (Matrilysin [30]) was 626 nM, the Ki (Collagenase 3 [31]) was 49 nM and the Ki (Stromelysin-2 [32]) was 18400 nM. It also gave a Ki [33] of 0.19 nM.

`O=C(NCCCCCCNS(=O)(=O)c1ccc(Oc2ccccc2)cc1)P(=O)(O)O` showed an IC50 [34] of 4 nM, a CL/F [35] of 7.1 mL/min/kg and an AUC [36] of 3300 ng·h/mL. For the same compound, the IC50 (Collagenase 3 [37]) was over 100 nM, the IC50 [38] was over 100 nM and the AUC [39] was 50500 ng·h/mL. The IC50 [40] was over 100 nM, the IC50 [41] was 20 nM and the half-life [42] was 5.8 h. It also gave a half-life [43] of 6.6 h.

Work on `CC(C)CNC(=O)P(=O)(O)O` yielded an IC50 (Neutrophil collagenase [44]) of 1000 nM, an IC50 [45] of over 100000 nM and an IC50 (Interstitial collagenase [46]) of 40000 nM.
